Source: patent publication US20030220521A1, “Renal-selective prodrugs for control of renal sympathetic nerve activity in the treatment of hypertension” (G.D. Searle & Co., priority 1989, published 2003)

Assays:
[1] = system: gamma-glutamyl transpeptidase and acylase I; test: Assay IV: metabolism of conjugate by purified transpeptidase and acylase; type: in vitro ADME
Method: […] The resulting suspension, diluted with buffer, was incubated in the presence of the Ex. #859 conjugate at 37° C. At various times aliquots were removed, deproteinized with an equal volume of cold trichloroacetic acid (25%) and centrifuged. The supernatant was injected onto a C-18 reverse-phase HPLC column and eluted isocratically with a mixture of acetonitrile and water (20:80 v/v) containing trifluoroacetic acid (0.05%). Eluted compounds were monitored by absorbance at 254 nm and compared to standards run under identical conditions. In the assay using pure kidney enzyme homogenate, the Ex. #859 conjugate was also incubated under the same conditions as described except that 5 mg of gamma-glutamyl transpeptidase (Sigma, 23 units/mg) and 10 mg of acylase I (Sigma, 4800 units/mg) were added in place of the homogenate. Analysis by HPLC was performed in a manner identical to that used for the kidney homogenate experiment.

[2] = system: spontaneously hypertensive rats; test: Assay VI: acute in vivo effects on mean arterial pressure and renal blood flow in anesthetized SHR (i.v. or i.d.); set-up: species or system rat; conditions: for MAP / RBF / acute effect on mean arterial pressure / acute effect on renal blood flow: 50 mg/kg i.v.
Method: Spontaneously hypertensive rats were anesthetized with inactin (100 mg/kg, i.p.) and catheters were implanted into a carotid artery for measurement of mean arterial pressure (Gould model 3800 chart recorder; Statham pressure transducer model no. P23DB) and into a jugular vein for compound administrations (i.v. or i.d.). In addition, a flow probe was implanted around the left renal artery for measurement of renal blood flow using pulsed Doppler flowmetry. Rats were allowed 60 min to stabilize before 10 minutes of control recordings of mean arterial pressure and renal blood flow were obtained. Control measurements were followed by intravenous injection of 50 mg/kg of fusaric acid or the Ex. #859 conjugate. […] The Ex. #859 conjugate had no effect on mean arterial pressure at a dose of 100 mg/kg (n=4) during a 60 minute observation period. Renal blood flow (n=4) was unchanged 15 minutes after injection of the Ex. #859 conjugate but increased from 1.1 KHz (control period) to 3.5 KHz at 30 minutes postinjection.

[3] = system: rats, heart and kidneys; test: Assay X: catecholamine analysis of heart and kidney tissue after 5 days of infusion; type: in vivo, rat
Method: Following 5 days of infusion, the kidney was exposed through a small flank incision, made in the anesthetized rat, and the renal artery and vein were ligated. Following this the kidney was rapidly excised distal to the ligation and frozen in liquid nitrogen. Similarly, the heart was excised and frozen subsequent to the removal of both kidneys. The frozen tissues were stored in closed containers at −80° C. Tissue samples were thawed on ice and their weight recorded prior to being placed in a flat bottom tube. The cold extraction solvent (2 ml/g tissue) was then added and the sample was homogenized with a Polytron. Extraction Solvent: 0.1 M perchloric acid (3 ml of 70% PCA to 500 ml); 0.4 mM Na metabisulphite (38 mg/500 ml). The volume was then measured and 0.05 ml of a 1 uM/L solution of dihydroxybenzylamine (DHBA) in extraction solvent was added for every 0.95 ml of homogenate to yield a 50 nM/L internal standard concentration. The homogenate was then mixed and centrifuged at 4° C., 3000 rpm for 35 minutes. A 2 ml aliquot of the supernatant was then neutralized by adding 0.5 ml of 2 M Tris, pH 8.8 and mixing. The sample was then placed on an alumina column (40 mg, Spe-ed CAT cartridge; Applied Separations; Bethlehem, Pa.) and the catecholamines were bound, washed and eluted using a vacuum manifold system (Adsorbex SPU, EM Science, Cherry Hill, N.J.) operating at ca. 4 ml/min. until the column was dry. Washes of 1 ml H20—0.5 ml MeOH—1 ml H20 were followed by elution with 1 ml of extraction solvent. A 200 μl sample of the eluant was injected onto a C-18 reversed phase analytical HPLC column, 5 um, 4.6 mm×250 mm (e.g., Beckman #235335, LKB 2134-630 Spherisorb ODS-2) and eluted with a recycled mobile phase run at ambient temperature and a flow rate of 0.5 ml/min (ca. 75 bar). Mobile Phase: 0.02 M Na2HP04 in 75/25(v/v) H20/MeOH 0.007% SDS pH 3.5 (conc. H3P04). The separated catecholamines were detected with a LKB 2143 electrochemical detector at a potential setting of 500 mV using a teflon flow cell spacer of 2.2 μl and a time constant of 2 sec. Peak heights were measured and recorded along with the chromatogram tracing using a Spectra-Physics 4270 integrator. […] The resulting factor (calculated for each sample) was used to correct for losses due to dilution, non-specific binding to the tissue precipitate, incomplete elution, etc. Concentrations were calculated by multiplying the peak heights for Epi, NE and DA by that samples correction factor and then dividing this value by the peak height of the respective standard. […] This value is multiplied by the volume of the homogenate (determined previously) to get the total catecholamine content of the tissue expressed in moles/g tissue. […]

[4] = anesthetized SHR, 60 minute observation

Row | SMILES | MAP ([2]; 15 min) | RBF ([2]; 15 min) | MAP ([2]; 30 min) | RBF ([2]; 30 min) | MAP ([2]; 45 min) | RBF ([2]; 45 min) | MAP ([2]; 60 min) | RBF ([2]; 60 min) | MAP ([2]; time zero (control)) | RBF ([2]; time zero (control)) | acute effect on mean arterial pressure [2, 4] | acute effect on renal blood flow [2, 4] | heart norepinephrine concentration relative to vehicle [3] | kidney norepinephrine concentration relative to vehicle [3] | further results
1 | CCCCc1ccc(C(=O)NNC(=O)CCC(NC(C)=O)C(=O)O)nc1 [Ex. #859, N-acetyl-L-glutamic acid, 5-[(5-butyl-2-pyridinyl)-carbonyl]hydrazide] | 163 mm Hg | 3.8 KHz | 164 mm Hg | 4.0 KHz | 157 mm Hg | 4.6 KHz | 159 mm Hg | 4.8 KHz | 156 mm Hg | 2.4 KHz | no acute effects | increased renal blood flow to a greater degree than fusaric acid | only fusaric acid decreased heart norepinephrine concentration | decreased kidney norepinephrine concentration | Fusaric Acid formed from conjugate ([1]; 3 h, pH 7.4): 0.00 µg/mL; Fusaric Acid formed from conjugate ([1]; 3 h, pH 8.1): 0.00 µg/mL; Fusaric Acid formed from conjugate ([1]; 24 h, pH 7.4): 2.56 µg/mL; Fusaric Acid formed from conjugate ([1]; 24 h, pH 8.1): 1.12 µg/mL; Fusaric Acid formed from conjugate ([1]; 72 h, pH 7.4): 12.15 µg/mL; Fusaric Acid formed from conjugate ([1]; 72 h, pH 8.1): 4.46 µg/mL; Fusaric Acid formed from conjugate ([1]; 96 h, pH 7.4): 15.44 µg/mL; Fusaric Acid formed from conjugate ([1]; 96 h, pH 8.1): 5.22 µg/mL; Fusaric Acid formed from conjugate ([1]; 120 h, pH 7.4): 18.75 µg/mL; Fusaric Acid formed from conjugate ([1]; 120 h, pH 8.1): 6.55 µg/mL; species present after incubation ([1]; purified gamma-glutamyl transpeptidase and acylase I): only fusaric acid and the unreacted compound being present; Renal blood flow change ([2]; anesthetized SHR, i.d. 100 mg/kg, 15 minutes after injection): unchanged; Renal Blood Flow ([2]; anesthetized SHR, i.d. 100 mg/kg, 30 minutes postinjection): 3.5 KHz; effect on mean arterial pressure ([2]; anesthetized SHR, i.d. 100 mg/kg, 60 minute observation): no effect; Renal Blood Flow ([2]; anesthetized SHR, i.d. 100 mg/kg, control period): 1.1 KHz; Renal blood flow course ([2]; anesthetized SHR, i.d. 100 mg/kg, following 30 minute observation period (30-60 min)): remained at this level; melting point: 191.5 to 192 °C
2 | CCCCc1ccc(C(=O)O)nc1 [Fusaric Acid, 5-n-butylpicolinic acid] | 111 mm Hg | 3.1 KHz | 106 mm Hg | 3.2 KHz | 103 mm Hg | 3.4 KHz | 99 mm Hg | 3.9 KHz | 155 mm Hg | 2.5 KHz | decreased mean arterial pressure | increased renal blood flow | decreased heart norepinephrine concentration | decreased kidney norepinephrine concentration | –
